Assay results reported in article PMC6930622, “Validation of an HPLC Method for the Simultaneous Quantification of Metabolic Reaction Products Catalysed by CYP2C11 Enzymes in Rat Liver Microsomes: In Vitro Inhibitory Effect of Salicylic Acid on CYP2C11 Enzyme” (Molecules, 2019).

Target: T1, CYP2C11 (Rattus norvegicus, UniProt P08683)
T1 sequence (P08683 1-500): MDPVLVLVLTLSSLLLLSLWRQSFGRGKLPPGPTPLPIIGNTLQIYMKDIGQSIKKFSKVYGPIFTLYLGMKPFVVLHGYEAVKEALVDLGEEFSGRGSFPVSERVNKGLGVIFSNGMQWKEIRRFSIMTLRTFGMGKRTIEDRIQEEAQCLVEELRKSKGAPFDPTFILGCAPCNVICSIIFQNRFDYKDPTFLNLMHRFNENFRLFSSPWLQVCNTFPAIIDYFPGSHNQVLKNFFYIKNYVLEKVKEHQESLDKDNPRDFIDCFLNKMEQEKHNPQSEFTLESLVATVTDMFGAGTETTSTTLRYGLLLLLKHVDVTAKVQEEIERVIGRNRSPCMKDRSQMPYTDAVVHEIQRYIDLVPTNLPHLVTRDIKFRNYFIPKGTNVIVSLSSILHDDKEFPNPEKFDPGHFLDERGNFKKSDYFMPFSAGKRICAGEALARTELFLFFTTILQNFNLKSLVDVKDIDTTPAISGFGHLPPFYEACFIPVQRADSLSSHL
Assay: testosterone […]α-hydroxylation in pooled male Sprague-Dawley rat liver microsomes, HPLC; Lineweaver-Burk
Type: biochemical

SMILES: O=C(O)c1ccccc1O [salicylic acid]
- Ki: 84.6 ± 2.67 µM
